The text below walks through data of patent US10266526B2, “Substituted 1,2,3-triazoles as SMYD inhibitors for treating cancer” (EPIZYME, INC., priority 2014, dated 2019).

As a reminder, the IC50 is the concentration at which inhibition is half-maximal.

The experiment deals with SMYD2 (Homo sapiens (Human), UniProt Q9NRG4). Kind of experiment: SMYD2 biochemical assay (SMYD2 enzyme assay on peptide substrate, 3H-SAM Flashplate). The settings on record: read-out: SMYD2 Biochem IC50; IC50 values are an average of n = 1 to n = 50.
SMYD2, sequence (Q9NRG4 whole entry): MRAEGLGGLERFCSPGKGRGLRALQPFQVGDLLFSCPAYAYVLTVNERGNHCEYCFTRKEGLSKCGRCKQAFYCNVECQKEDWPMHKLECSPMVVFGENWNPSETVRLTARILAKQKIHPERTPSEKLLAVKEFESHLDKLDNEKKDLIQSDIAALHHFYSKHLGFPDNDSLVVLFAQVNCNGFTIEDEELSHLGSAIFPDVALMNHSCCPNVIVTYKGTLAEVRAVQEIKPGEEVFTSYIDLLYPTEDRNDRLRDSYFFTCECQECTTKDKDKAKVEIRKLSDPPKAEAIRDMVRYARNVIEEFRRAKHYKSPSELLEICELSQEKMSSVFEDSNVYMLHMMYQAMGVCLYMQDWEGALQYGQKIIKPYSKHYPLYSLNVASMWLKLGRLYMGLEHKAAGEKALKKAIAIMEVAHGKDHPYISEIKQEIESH
As to `CC(C)CN1CC(NC(=O)c2cn(C3CC3)nn2)C1` [compound 668, 1-cyclopropyl-N-[1-(2-methylpropyl)azetidin-3-yl]-1H-1,2,3-triazole-4-carboxamide], the IC50 is 2.75 µM.

As for `O=C(NC1CN(CC2CCC2)C1)c1cn(C2CC2)nn1` [compound 669, N-[1-(cyclobutylmethyl)azetidin-3-yl]-1-cyclopropyl-1H-1,2,3-triazole-4-carboxamide], the IC50 amounted to 1.62 µM.

With `O=C(NC1CN(CCO)C1)c1cn(C2CC2)nn1` [compound 670, 1-cyclopropyl-N-[1-(2-hydroxyethyl)azetidin-3-yl]-1H-1,2,3-triazole-4-carboxamide], the 50% inhibitory concentration (IC50) stood at 4.53 µM.

As for `O=C(NC1CN(Cc2ccccc2)C1)c1cn(C2CC2)nn1` [compound 671, N-(1-benzylazetidin-3-yl)-1-cyclopropyl-1H-1,2,3-triazole-4-carboxamide], the IC50 was determined as 4.21 µM.

In the case of `O=C(NC1CN(Cc2ccccc2)C1)c1cn(C2CC2)nn1` [compound 672, N-(1-benzylazetidin-3-yl)-1-cyclopropyl-1H-1,2,3-triazole-4-carboxamide], the IC50 was 1.55 µM.

In the case of `O=C(NC1CN(CCc2ccccc2)C1)c1cn(C2CC2)nn1` [compound 673, 1-cyclopropyl-N-[1-(2-phenylethyl)azetidin-3-yl]-1H-1,2,3-triazole-4-carboxamide], the IC50 came out at 1.55 µM.

As to `O=C(NC1CN(C(CO)c2ccccc2)C1)c1cn(C2CC2)nn1` (stereo not shown) [compound 674, 1-cyclopropyl-N-[1-(2-hydroxy-1-phenylethyl)azetidin-3-yl]-1H-1,2,3-triazole-4-carboxamide], the 50% inhibitory concentration (IC50) was 4.27 µM.

With `CC(c1ccccc1F)N1CC(NC(=O)c2cn(C3CC3)nn2)C1` (stereo not shown) [compound 678, 1-cyclopropyl-N-{1-[1-(2-fluorophenyl)ethyl]azetidin-3-yl}-1H-1,2,3-triazole-4-carboxamide], the IC50 turned out to be 0.907 µM.

Consider `COc1cccc(C(C)N2CC(NC(=O)c3cn(C4CC4)nn3)C2)c1` (stereo not shown) [compound 679, 1-cyclopropyl-N-{1-[1-(3-methoxyphenyl)ethyl]azetidin-3-yl}-1H-1,2,3-triazole-4-carboxamide], for which the IC50 amounted to 1.45 µM.

Regarding `CC(c1ccc(C(F)(F)F)cc1)N1CC(NC(=O)c2cn(C3CC3)nn2)C1` (stereo not shown) [compound 680, 1-cyclopropyl-N-(1-{1-[4-(trifluoromethyl)phenyl]ethyl}azetidin-3-yl)-1H-1,2,3-triazole-4-carboxamide], the half-maximal inhibitory concentration (IC50) was more than 50 µM.

Consider `CCCCOc1ccc(C(C)N2CC(NC(=O)c3cn(C4CC4)nn3)C2)cc1` (stereo not shown) [compound 681, N-{1-[1-(4-butoxyphenyl)ethyl]azetidin-3-yl}-1-cyclopropyl-1H-1,2,3-triazole-4-carboxamide], for which the IC50 amounted to 1.29 µM.

Consider `CC(c1ccccc1OC(F)(F)F)N1CC(NC(=O)c2cn(C3CC3)nn2)C1` (stereo not shown) [compound 684, 1-cyclopropyl-N-(1-{1-[2-(trifluoromethoxy)phenyl]ethyl}azetidin-3-yl)-1H-1,2,3-triazole-4-carboxamide], for which the IC50 was found to be 2.13 µM.

Consider `COCCCN1CC(NC(=O)c2cn(C3CC3)nn2)C1` [compound 686, 1-cyclopropyl-N-[1-(3-methoxypropyl)azetidin-3-yl]-1H-1,2,3-triazole-4-carboxamide], for which the IC50 was determined as 3.76 µM.

For `COc1ccc(CC(C)N2CC(NC(=O)c3cn(C4CC4)nn3)C2)cc1OC` (stereo not shown) [compound 688, 1-cyclopropyl-N-{1-[1-(3,4-dimethoxyphenyl)propan-2-yl]azetidin-3-yl}-1H-1,2,3-triazole-4-carboxamide], the IC50 stood at 5.1 µM.

For the compound `COc1cc(F)ccc1C(C)N1CC(NC(=O)c2cn(C3CC3)nn2)C1` (stereo not shown) [compound 689, 1-cyclopropyl-N-{1-[1-(4-fluoro-2-methoxyphenyl)ethyl]azetidin-3-yl}-1H-1,2,3-triazole-4-carboxamide], the IC50 is 1.89 µM.

On to `COc1ccc(C(F)(F)F)cc1C(C)N1CC(NC(=O)c2cn(C3CC3)nn2)C1` (stereo not shown) [compound 690, 1-cyclopropyl-N-(1-{1-[2-methoxy-5-(trifluoromethyl)phenyl]ethyl}azetidin-3-yl)-1H-1,2,3-triazole-4-carboxamide], for which the IC50 came out at 7.99 µM.

In the case of `CC(c1ccc2c(c1)OCO2)N1CC(NC(=O)c2cn(C3CC3)nn2)C1` (stereo not shown) [compound 691, N-{1-[1-(2H-1,3-benzodioxol-5-yl)ethyl]azetidin-3-yl}-1-cyclopropyl-1H-1,2,3-triazole-4-carboxamide], the IC50 was determined as 0.807 µM.

Take `CC(c1ccc(OCc2ccccc2)cc1)N1CC(NC(=O)c2cn(C3CC3)nn2)C1` (stereo not shown) [compound 692, N-(1-{1-[4-(benzyloxy)phenyl]ethyl}azetidin-3-yl)-1-cyclopropyl-1H-1,2,3-triazole-4-carboxamide]: the IC50 was determined as 0.172 µM.

As to `CC(c1ccc(OCc2ccccc2)cc1)N1CC(NC(=O)c2cn(C3CC3)nn2)C1` (stereo not shown) [compound 693, N-(1-{1-[4-(benzyloxy)phenyl]ethyl}azetidin-3-yl)-1-cyclopropyl-1H-1,2,3-triazole-4-carboxamide], the IC50 worked out at 0.176 µM.

Turning to `CCC(c1ccc(F)cc1)N1CC(NC(=O)c2cn(C3CC3)nn2)C1` (stereo not shown) [compound 694, 1-cyclopropyl-N-{1-[1-(4-fluorophenyl)propyl]azetidin-3-yl}-1H-1,2,3-triazole-4-carboxamide], the IC50 came out at 0.787 µM.

With `COc1ccc(C(C)N2CC(NC(=O)c3cn(C4CC4)nn3)C2)cc1OC` (stereo not shown) [compound 698, 1-cyclopropyl-N-{1-[1-(3,4-dimethoxyphenyl)ethyl]azetidin-3-yl}-1H-1,2,3-triazole-4-carboxamide], the IC50 was 3.69 µM.

Consider `CCC(c1ccc(C(F)(F)F)cc1)N1CC(NC(=O)c2cn(C3CC3)nn2)C1` (stereo not shown) [compound 700, 1-cyclopropyl-N-(1-{1-[4-(trifluoromethyl)phenyl]propyl}azetidin-3-yl)-1H-1,2,3-triazole-4-carboxamide], for which the IC50 came out at 2.67 µM.

Consider `COCCOc1cccc(CN2CC(NC(=O)c3cn(C4CC4)nn3)C2)c1` [compound 701, 1-cyclopropyl-N-(1-{[3-(2-methoxyethoxy)phenyl]methyl}azetidin-3-yl)-1H-1,2,3-triazole-4-carboxamide], for which the half-inhibitory concentration (IC50) turned out to be 8.03 µM.

Regarding `COCCOc1cccc(C(C)N2CC(NC(=O)c3cn(C4CC4)nn3)C2)c1` (stereo not shown) [compound 702, 1-cyclopropyl-N-(1-{1-[3-(2-methoxyethoxy)phenyl]ethyl}azetidin-3-yl)-1H-1,2,3-triazole-4-carboxamide], the IC50 worked out at 3.58 µM.

Regarding `CC(C)N1CC(NC(=O)c2cn(CCO)nn2)C1` [compound 703, 1-(2-hydroxyethyl)-N-[1-(propan-2-yl)azetidin-3-yl]-1H-1,2,3-triazole-4-carboxamide], the IC50 is more than 50 µM.

`CC(c1cccc(OCCO)c1)N1CC(NC(=O)c2cn(C3CC3)nn2)C1` (stereo not shown) [compound 704, 1-cyclopropyl-N-(1-{1-[3-(2-hydroxyethoxy)phenyl]ethyl}azetidin-3-yl)-1H-1,2,3-triazole-4-carboxamide]: the IC50 was determined as 0.64 µM.

`CNCCOc1cccc(C(C)N2CC(NC(=O)c3cn(C4CC4)nn3)C2)c1` (stereo not shown) [compound 705, 1-cyclopropyl-N-[1-(1-{3-[2-(methylamino)ethoxy]phenyl}ethyl)azetidin-3-yl]-1H-1,2,3-triazole-4-carboxamide]: the IC50 was 2.04 µM.

`O=C(NC1CN(CCCO)C1)c1cn(C2CC2)nn1` [compound 707, 1-cyclopropyl-N-[1-(3-hydroxypropyl)azetidin-3-yl]-1H-1,2,3-triazole-4-carboxamide]: the IC50 was found to be 1.91 µM.

As to `CN(C)CCCN1CC(NC(=O)c2cn(C3CC3)nn2)C1` [compound 708, 1-cyclopropyl-N-{1-[3-(dimethylamino)propyl]azetidin-3-yl}-1H-1,2,3-triazole-4-carboxamide], the IC50 was more than 50 µM.

As to `C[C@@H](c1ccccc1)N1CC(NC(=O)c2cn(C3CC3)nn2)C1` [compound 709, 1-cyclopropyl-N-{1-[(1S)-1-phenylethyl]azetidin-3-yl}-1H-1,2,3-triazole-4-carboxamide], the IC50 is 0.377 µM.

As for `CC(c1ccc(F)cc1Cl)N1CC(NC(=O)c2cn(C3CC3)nn2)C1` (stereo not shown) [compound 710, N-{1-[1-(2-chloro-4-fluorophenyl)ethyl]azetidin-3-yl}-1-cyclopropyl-1H-1,2,3-triazole-4-carboxamide], the IC50 was found to be 0.341 µM.

For the compound `CCC(c1cccc(F)c1)N1CC(NC(=O)c2cn(C3CC3)nn2)C1` (stereo not shown) [compound 711, 1-cyclopropyl-N-{1-[1-(3-fluorophenyl)propyl]azetidin-3-yl}-1H-1,2,3-triazole-4-carboxamide], the IC50 was 1.01 µM.

`COc1ccc2c(c1Cl)CCC2N1CC(NC(=O)c2cn(C3CC3)nn2)C1` (stereo not shown) [compound 713, N-[1-(4-chloro-5-methoxy-2,3-dihydro-1H-inden-1-yl)azetidin-3-yl]-1-cyclopropyl-1H-1,2,3-triazole-4-carboxamide]: the IC50 was determined as 12.9 µM.

Consider `CC(c1cc(F)cc(Cl)c1)N1CC(NC(=O)c2cn(C3CC3)nn2)C1` (stereo not shown) [compound 714, N-{1-[1-(3-chloro-5-fluorophenyl)ethyl]azetidin-3-yl}-1-cyclopropyl-1H-1,2,3-triazole-4-carboxamide], for which the 50% inhibitory concentration (IC50) was 2.13 µM.

On to `CC(c1ncccn1)N1CC(NC(=O)c2cn(C3CC3)nn2)C1` (stereo not shown) [compound 715, 1-cyclopropyl-N-{1-[1-(pyrimidin-2-yl)ethyl]azetidin-3-yl}-1H-1,2,3-triazole-4-carboxamide], for which the IC50 worked out at 1.94 µM.

As for `CC(c1nccs1)N1CC(NC(=O)c2cn(C3CC3)nn2)C1` (stereo not shown) [compound 716, 1-cyclopropyl-N-{1-[1-(1,3-thiazol-2-yl)ethyl]azetidin-3-yl}-1H-1,2,3-triazole-4-carboxamide], the IC50 is 30.7 µM.

As to `COCCn1cc(CN2CC(NC(=O)c3cn(C4CC4)nn3)C2)cn1` [compound 717, 1-cyclopropyl-N-(1-{[1-(2-methoxyethyl)-1H-pyrazol-4-yl]methyl}azetidin-3-yl)-1H-1,2,3-triazole-4-carboxamide], the IC50 was found to be 3.06 µM.
